System: Wakin goldfish
Assay: Toxicity to fish, plant waste water test method (JIS-K-0102-1964)
Assay type: in vivo
Description: The test was carried out according to plant waste water test method (JIS-K-0102-1964). Wakin goldfish was used as the subject.
*A concentration at which half the number of the subjects died within 48
hours. The higher the number of ppm., the lower the toxicity to fish.

Substance: Benzalkonium chloride
- TLM (concentration at which half the number of the subjects died within 48 hours): 0.87 ppm

— patent US3932492A, “Process for preparing new amidine compounds” (Kao Soap Co., Ltd., priority 1973, dated 1976)
